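48-hour exposure; five concentrations; linearly interpolated endpoints. GI50 = concentration required for 50% inhibition of growth. TGI: concentration producing complete growth inhibition.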
What was measured:
Assay in all cases: NCI-60 cell line screen, 48 h
SR leukemia = test system: SR leukemia
CCRF-CEM leukemia = test system: CCRF-CEM leukemia
M14 melanoma = test system: M14 melanoma
NCI-H23 lung = test system: NCI-H23 lung
SF-539 CNS = test system: SF-539 CNS
SK-OV-3 ovarian = test system: SK-OV-3 ovarian
SF-295 CNS = test system: SF-295 CNS
SNB-75 CNS = test system: SNB-75 CNS
SK-MEL-2 melanoma = test system: SK-MEL-2 melanoma
A498 renal = test system: A498 renal

Row | SMILES | TGI (SR leukemia) | TGI (CCRF-CEM leukemia) | TGI (M14 melanoma) | TGI (NCI-H23 lung) | TGI (SF-539 CNS) | TGI (SK-OV-3 ovarian) | TGI (SF-295 CNS) | TGI (SNB-75 CNS) | TGI (SK-MEL-2 melanoma) | GI50 (SR leukemia) | GI50 (CCRF-CEM leukemia) | GI50 (NCI-H23 lung) | GI50 (SF-539 CNS) | GI50 (SK-OV-3 ovarian) | GI50 (SF-295 CNS) | GI50 (SNB-75 CNS) | GI50 (SK-MEL-2 melanoma) | GI50 (A498 renal) | TGI (A498 renal) | GI50 (M14 melanoma)
1 | Cn1nc(-c2ccccc2NC(=O)C(F)(F)F)c(=O)n(C)c1=S | 53.7 µM | > 100 µM | 45 µM | 80.8 µM | 83.9 µM | > 100 µM | > 100 µM | 59.4 µM | 60.7 µM |  |  |  |  |  |  |  |  |  |  | 
2 | CCOC(=O)/C(C1=N[C@H](C(=O)OCC)CS1)=C(\C)O | > 100 µM | > 100 µM | > 100 µM | > 100 µM |  |  | > 100 µM | > 100 µM | > 100 µM |  |  |  |  |  |  |  |  |  |  | 
3 | COc1ccc(-c2oc3cc(O)c(OC)c(O)c3c(=O)c2OC2OC(CO)C(O)C(O)C2O)cc1 (configuration not stated) |  | > 100 µM | > 100 µM | > 100 µM | > 100 µM | > 100 µM | > 100 µM | > 100 µM | > 100 µM |  |  |  |  |  |  |  |  |  |  | 
4 | Cc1cc(NC(=O)C2c3ccccc3C(=O)N(CC(C)C)C2c2cccs2)no1 (configuration not stated) | > 100 µM | > 100 µM |  | > 100 µM | > 100 µM | > 100 µM | > 100 µM | > 100 µM | > 100 µM | 35.5 µM | 82.5 µM | > 100 µM | > 100 µM | > 100 µM | 29 µM | 10.5 µM | > 100 µM |  |  | 
5 | Cn1ncc2cc3c(Nc4ccc(Cl)cc4)cccc3nc21 |  | 92.7 µM | 46.3 µM | > 100 µM |  | > 100 µM | 35.3 µM | > 100 µM | 51.8 µM |  |  |  |  |  |  |  |  |  |  | 
6 | CC(=O)O[C@H]1C(=O)[C@@]2(C)C([C@H](OC(=O)c3ccccc3)[C@]3(O)C[C@H](OC(=O)[C@H](O)[C@H](NC(=O)c4ccccc4)c4ccc(Cl)cc4)C(C)=C1C3(C)C)C1(OC(C)=O)CO[C@@H]1C[C@@H]2O (some centres not stated) |  | 12.9 µM | 0.027 µM |  | 0.0026 µM |  |  |  | 0.0635 µM |  |  |  |  |  | 0.0167 µM |  |  | 0.2 µM | 30.4 µM | 
7 | O=C(O)CN(c1ccc(Cl)cc1)S(=O)(=O)c1ccccc1 |  | > 100 µM | > 100 µM | > 100 µM | > 100 µM | > 100 µM | > 100 µM | > 100 µM | > 100 µM |  |  |  |  |  |  |  |  |  | > 100 µM | 
8 | Cc1cc(C)nc(NS(=O)(=O)c2ccc(Nc3c4ccccc4nc4c(C(=O)Nc5ccc(S(N)(=O)=O)cc5)cccc34)cc2)n1 |  | > 100 µM | > 100 µM | > 100 µM | > 100 µM | 75.5 µM | > 100 µM | 88.4 µM | > 100 µM |  |  |  |  |  |  |  |  |  | > 100 µM | 
9 | Cc1ccc(-c2c(C#N)c(N)nc(N3CCOCC3)c2C#N)o1 |  | > 100 µM | > 100 µM |  | > 100 µM |  |  | 43.9 µM | > 100 µM |  | 36.2 µM |  | 48.3 µM |  |  | 2.73 µM | 78.8 µM | 15.5 µM | 54.4 µM | 87.9 µM
10 | NC(N)=NS(=O)(=O)c1ccc(NC(=O)c2cccc3c(Nc4ccc(S(=O)(=O)N=C(N)N)cc4)c4ccc(Cl)cc4nc23)cc1 |  | > 100 µM | > 100 µM | > 100 µM | > 100 µM | > 100 µM | > 100 µM | > 100 µM | > 100 µM |  |  |  |  |  |  |  |  |  | > 100 µM | 
11 | ClC(=Nc1cccc2ccccc12)N(c1ccccc1)c1ccccc1 | > 100 µM |  | > 100 µM | > 100 µM |  | > 100 µM | > 100 µM | > 100 µM | > 100 µM |  |  |  |  |  |  |  |  |  | > 100 µM | 
12 | Nc1ccn(C=C=CCO)c(=O)n1 | > 1000 µM | > 1000 µM | > 1000 µM | > 1000 µM | > 1000 µM | > 1000 µM | > 1000 µM | > 1000 µM | > 1000 µM |  |  | > 1000 µM | > 1000 µM | > 1000 µM | > 1000 µM | > 1000 µM | > 1000 µM |  |  | > 1000 µM
13 | COc1ccc(/C(=C/c2cc(OC)c(OC)c(OC)c2)[N+](=O)[O-])cc1 |  |  | 3.72 µM | 4.64 µM | 2.98 µM | 17 µM | 5.34 µM | 6.3 µM | 4.92 µM |  |  | 2.02 µM | 1.61 µM | 4.96 µM | 2.09 µM | 2.02 µM | 2.04 µM | 1.76 µM | 3.63 µM | 1.79 µM
14 | CCOC(=O)c1cnc(SCc2ccc(Cl)c(Cl)c2)nc1N1CC1 |  | 28.1 µM | 11.7 µM | 14.5 µM | 12.3 µM | 10.4 µM | 8.99 µM | 6.09 µM | 11.1 µM |  | 2.82 µM | 3.62 µM | 3.3 µM | 2.85 µM | 2.43 µM | 2.05 µM | 3.26 µM | 2.82 µM | 14.4 µM | 2.89 µM
15 | CCCCOC(=O)C(=O)C(CC(C(=O)Cc1ccccc1)c1ccccc1)C(=O)C=C(C)C (configuration not stated) |  | > 100 µM | > 100 µM | > 100 µM | > 100 µM | > 100 µM | > 100 µM | > 100 µM | > 100 µM |  |  |  |  |  |  |  |  |  |  | 
16 | COc1cc(C(=O)O)c([N+](=O)[O-])c(OC)c1OC | > 100 µM |  | > 100 µM | > 100 µM | > 100 µM | > 100 µM | > 100 µM | > 100 µM | > 100 µM |  |  |  |  |  |  |  |  |  | > 100 µM | 
17 | CC(=O)c1ccc(Nc2cc(-n3ccnc3)nc3ccccc23)cc1 |  |  | 52 µM | > 100 µM | 88.7 µM | > 100 µM | 9.53 µM | > 100 µM | > 100 µM |  |  | 49.6 µM | 40.6 µM | > 100 µM | 2.8 µM | 38.2 µM | > 100 µM |  |  | 8.15 µM
18 | O=[N+]([O-])c1ccc(N/N=C\c2cc(Cl)ccc2O)nc1 |  | > 100 µM | 7.27 µM | 9 µM | > 100 µM | 37.3 µM | 11.7 µM | 21.3 µM | 29.4 µM |  | 0.386 µM | 0.541 µM | 3.02 µM | 4.25 µM | 2.15 µM | 1.55 µM | 3.24 µM | 17 µM | > 100 µM | 1.19 µM
19 | NC(N)=NC(CC(=O)O)c1ccccc1 (configuration not stated) | > 100 µM |  | > 100 µM | > 100 µM | > 100 µM | > 100 µM | > 100 µM | > 100 µM | > 100 µM |  |  |  |  |  |  |  |  |  | > 100 µM | 
20 | S=c1[nH]nc(COc2ccc(Cl)cc2)o1 |  | > 100 µM | > 100 µM | > 100 µM | > 100 µM | > 100 µM | > 100 µM | > 100 µM |  |  |  |  |  |  |  |  |  |  | > 100 µM | 
